Reference: publication PMC12564180 (International Journal of Molecular Sciences, 2025)
One block for each compound: values may come before it.

Tests used:
pan-CYP = assay: Depletion of 1 µM filapixant in human hepatocytes in absence and presence of CYP3A4 selective and pan-CYP inhibitors; type: in vitro ADME; conditions: human, probe filapixant (1 µM, non-labeled), read-out: % of control CLint inhibited
[1] = as above; type: in vitro ADME; conditions: 1 µM filapixant, in presence of the inhibitor
[2] = Clinical drug-drug interaction study filapixant with itraconazole: pharmacokinetics; type: in vivo, human; conditions: plasma, study day 4, itraconazole 200 mg once daily oral solution
Method: Spontaneous reported adverse events were recorded as well adverse events that were reported after open-ended and non-leading verbal questioning of the participants to avoid bias. In addition, itraconazole concentrations were measured in plasma at selected time points to confirm that relevant inhibitory plasma levels were achieved.
The study was conducted in a single-center, open-label, fixed sequence design with two periods.
PK parameters were calculated by a non-compartmental analysis using the program WinNonlin version 5.3 (Pharsight Corporation, St. Louis, MO, USA), with the Automation Extension (version 2.90, Bayer Pharma AG, Wuppertal, Germany). The statistical evaluation was performed by using the software package SAS release 9.2 (SAS Institute Inc., Cary, NC, USA). All analyses were exploratory. Therefore, no multiplicity adjustments were performed.
The main PK metrics AUC and Cmax were statistically analyzed, assuming log-normally distributed data. Mean differences between treatments (and their standard error) were determined for logarithmized PK metrics. A total of 90% CIs for treatment differences were determined as well, applying standard methodology for log-normally distributed data. […] Only participants providing a valid PK profile from both study periods were to be included in the primary analysis.

CYP3A4 [3] = assay: Depletion of 1 µM filapixant in human hepatocytes in absence and presence of CYP3A4 selective and pan-CYP inhibitors; type: in vitro ADME; conditions: human, probe filapixant (1 µM, non-labeled), read-out: % of control CLint inhibited
[4] = Incubation of 1 µM [3H]filapixant in human liver microsomes with CYP isoform-selective inhibitors; type: in vitro ADME
CYP3A4 [5] = target: T1, CYP3A4 (Homo sapiens, UniProt P08684); assay: Incubation of filapixant with human recombinant CYP3A4 (Supersomes); type: in vitro ADME; conditions: for Remaining drug and formation of metabolites, Peak Area: 1 µM [3H]filapixant, CYP3A4, 60 min; for Vmax of metabolite formation: filapixant in recombinant human CYP3A4 (25 pmol/mL), 20 min incubation
T1 construct: purchased
T1 sequence (P08684 whole entry): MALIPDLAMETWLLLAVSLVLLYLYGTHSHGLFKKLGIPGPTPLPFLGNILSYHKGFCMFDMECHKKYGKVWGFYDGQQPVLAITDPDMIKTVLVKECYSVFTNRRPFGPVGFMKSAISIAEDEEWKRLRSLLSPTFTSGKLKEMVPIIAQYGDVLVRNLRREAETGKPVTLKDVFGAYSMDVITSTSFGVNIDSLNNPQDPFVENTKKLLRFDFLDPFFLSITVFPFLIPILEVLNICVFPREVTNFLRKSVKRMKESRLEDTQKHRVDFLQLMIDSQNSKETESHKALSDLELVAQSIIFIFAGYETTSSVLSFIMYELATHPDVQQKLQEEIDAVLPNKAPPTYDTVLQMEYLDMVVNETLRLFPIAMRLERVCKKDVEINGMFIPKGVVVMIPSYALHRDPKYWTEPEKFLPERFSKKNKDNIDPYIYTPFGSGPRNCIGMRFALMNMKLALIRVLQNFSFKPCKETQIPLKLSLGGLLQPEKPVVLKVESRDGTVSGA

CYP1A1 = target: T2, CYP1A1 (Homo sapiens, UniProt P04798); assay: Incubation of filapixant with human recombinant CYP1A1 (Supersomes); type: in vitro ADME; conditions: 1 µM [3H]filapixant, CYP1A1, 60 min
T2 construct: purchased
T2 sequence (P04798 1-512): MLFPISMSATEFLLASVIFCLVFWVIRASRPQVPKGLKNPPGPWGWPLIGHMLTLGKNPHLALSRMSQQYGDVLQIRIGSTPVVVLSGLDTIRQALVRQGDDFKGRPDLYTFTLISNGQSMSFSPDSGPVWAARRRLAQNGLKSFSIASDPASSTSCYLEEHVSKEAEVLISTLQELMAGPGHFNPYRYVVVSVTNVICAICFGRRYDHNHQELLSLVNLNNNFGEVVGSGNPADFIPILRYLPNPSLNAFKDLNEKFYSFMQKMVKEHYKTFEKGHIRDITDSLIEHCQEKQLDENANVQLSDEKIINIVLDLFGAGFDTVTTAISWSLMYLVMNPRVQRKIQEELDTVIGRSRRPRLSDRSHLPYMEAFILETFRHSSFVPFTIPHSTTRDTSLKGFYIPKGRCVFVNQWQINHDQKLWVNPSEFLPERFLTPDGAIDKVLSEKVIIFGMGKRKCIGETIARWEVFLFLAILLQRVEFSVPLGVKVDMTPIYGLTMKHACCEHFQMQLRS

CYP2J2 = target: T3, CYP2J2 (Homo sapiens, UniProt P51589); assay: Incubation of filapixant with human recombinant CYP2J2 (Supersomes); type: in vitro ADME; conditions: 1 µM [3H]filapixant, CYP2J2, 60 min
T3 construct: purchased
T3 sequence (P51589 1-502): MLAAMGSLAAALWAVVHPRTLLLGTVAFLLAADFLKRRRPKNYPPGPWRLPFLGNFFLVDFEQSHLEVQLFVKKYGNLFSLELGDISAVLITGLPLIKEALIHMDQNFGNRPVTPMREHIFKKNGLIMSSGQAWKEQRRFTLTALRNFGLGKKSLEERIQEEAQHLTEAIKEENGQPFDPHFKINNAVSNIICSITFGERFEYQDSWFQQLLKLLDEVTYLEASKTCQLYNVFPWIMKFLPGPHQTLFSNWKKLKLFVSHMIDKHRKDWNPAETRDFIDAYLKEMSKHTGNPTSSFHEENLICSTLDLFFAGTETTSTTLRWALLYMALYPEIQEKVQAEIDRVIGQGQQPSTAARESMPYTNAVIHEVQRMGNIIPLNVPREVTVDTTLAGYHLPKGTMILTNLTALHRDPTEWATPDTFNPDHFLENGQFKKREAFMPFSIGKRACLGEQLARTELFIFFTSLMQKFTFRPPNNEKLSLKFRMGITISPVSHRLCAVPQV

[6] = Biotransformation and enzyme kinetics of filapixant in human liver microsomes; type: in vitro ADME; conditions: [3H]filapixant 1 µM, pooled human liver microsomes, 1 h of incubation, n = 1
Method: (§1) The incubations were analyzed by high-performance liquid chromatography (HPLC) with tandem mass spectroscopy (MS/MS) followed by off-line radioactivity detection to generate metabolite profiles and elucidate or confirm the structures of the metabolites formed.

[7] = Biotransformation of [3H]filapixant in human hepatocytes; type: in vitro ADME; conditions: [3H]filapixant 1 µM, 4 h of incubation, range in three batches
Method: as §1

CYP2D6 = target: T4, CYP2D6 (Homo sapiens, UniProt P10635); assay: Incubation of filapixant with human recombinant CYP2D6 (Supersomes); type: in vitro ADME; conditions: 1 µM [3H]filapixant, CYP2D6, 60 min
T4 construct: purchased
T4 sequence (P10635 whole entry): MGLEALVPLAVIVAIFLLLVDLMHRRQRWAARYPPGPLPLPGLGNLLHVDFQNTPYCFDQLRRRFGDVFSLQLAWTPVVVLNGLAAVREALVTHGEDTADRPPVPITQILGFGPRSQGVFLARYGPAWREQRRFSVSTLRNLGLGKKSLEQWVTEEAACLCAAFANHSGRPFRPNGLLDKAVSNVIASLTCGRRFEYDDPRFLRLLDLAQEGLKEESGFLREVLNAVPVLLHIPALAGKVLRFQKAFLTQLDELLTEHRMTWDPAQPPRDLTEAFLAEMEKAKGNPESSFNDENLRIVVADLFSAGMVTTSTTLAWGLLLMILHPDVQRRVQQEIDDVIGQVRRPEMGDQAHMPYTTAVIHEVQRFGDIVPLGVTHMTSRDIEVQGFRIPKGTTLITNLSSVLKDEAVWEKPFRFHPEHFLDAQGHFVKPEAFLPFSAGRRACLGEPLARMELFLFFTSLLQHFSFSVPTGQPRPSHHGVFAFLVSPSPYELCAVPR

CYP3A5 = target: T5, CYP3A5 (Homo sapiens, UniProt P20815); assay: Incubation of [3H]filapixant with human recombinant CYP3A5 (Supersomes); type: in vitro ADME; conditions: 1 µM [3H]filapixant, CYP3A5, 60 min
T5 construct: purchased
T5 sequence (P20815 whole entry): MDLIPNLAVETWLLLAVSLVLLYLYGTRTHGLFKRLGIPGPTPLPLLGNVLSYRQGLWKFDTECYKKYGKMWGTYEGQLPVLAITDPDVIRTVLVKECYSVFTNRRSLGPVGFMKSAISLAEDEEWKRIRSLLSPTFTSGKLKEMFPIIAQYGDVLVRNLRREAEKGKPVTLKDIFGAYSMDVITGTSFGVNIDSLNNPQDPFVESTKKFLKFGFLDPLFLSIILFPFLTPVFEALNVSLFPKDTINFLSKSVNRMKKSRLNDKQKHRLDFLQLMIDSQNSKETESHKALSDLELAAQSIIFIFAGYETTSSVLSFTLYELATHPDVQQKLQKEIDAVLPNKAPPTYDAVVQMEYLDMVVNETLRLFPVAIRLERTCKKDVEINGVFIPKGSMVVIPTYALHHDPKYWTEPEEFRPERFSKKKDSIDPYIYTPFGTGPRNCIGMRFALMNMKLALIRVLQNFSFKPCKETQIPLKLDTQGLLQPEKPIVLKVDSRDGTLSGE

[8] = Biotransformation and enzyme kinetics of filapixant in human liver microsomes; type: in vitro ADME; conditions: for Vmax of metabolite formation: filapixant in human liver microsomes (0.5 mg/mL), 30 min incubation; for Km at 30 min: human, human liver microsomes, probe filapixant (substrate), read-out: Km,app of metabolite formation
CYP2C9 = target: T6, CYP2C9 (Homo sapiens, UniProt P11712); assay: Incubation of [3H]filapixant with human recombinant CYP2C9 (Supersomes); type: in vitro ADME; conditions: 1 µM [3H]filapixant, CYP2C9, 60 min
T6 construct: purchased
T6 sequence (P11712 whole entry): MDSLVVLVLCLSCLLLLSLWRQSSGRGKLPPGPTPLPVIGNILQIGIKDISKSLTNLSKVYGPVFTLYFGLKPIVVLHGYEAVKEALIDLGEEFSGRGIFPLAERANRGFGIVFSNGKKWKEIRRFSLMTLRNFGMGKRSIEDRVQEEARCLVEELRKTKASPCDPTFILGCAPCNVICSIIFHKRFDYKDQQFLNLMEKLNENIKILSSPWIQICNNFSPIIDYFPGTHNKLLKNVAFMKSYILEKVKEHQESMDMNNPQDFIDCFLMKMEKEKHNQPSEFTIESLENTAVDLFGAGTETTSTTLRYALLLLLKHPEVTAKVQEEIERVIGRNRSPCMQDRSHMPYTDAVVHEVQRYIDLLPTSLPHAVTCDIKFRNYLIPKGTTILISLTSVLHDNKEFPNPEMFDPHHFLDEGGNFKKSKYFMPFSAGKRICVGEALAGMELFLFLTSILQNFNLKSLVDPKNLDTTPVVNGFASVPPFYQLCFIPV

CYP4F2 = target: T7, CYP4F2 (Homo sapiens, UniProt P78329); assay: Incubation of [3H]filapixant with human recombinant CYP4F2 (Supersomes); type: in vitro ADME; conditions: 1 µM [3H]filapixant, CYP4F2, 60 min
T7 construct: purchased
T7 sequence (P78329 5-520): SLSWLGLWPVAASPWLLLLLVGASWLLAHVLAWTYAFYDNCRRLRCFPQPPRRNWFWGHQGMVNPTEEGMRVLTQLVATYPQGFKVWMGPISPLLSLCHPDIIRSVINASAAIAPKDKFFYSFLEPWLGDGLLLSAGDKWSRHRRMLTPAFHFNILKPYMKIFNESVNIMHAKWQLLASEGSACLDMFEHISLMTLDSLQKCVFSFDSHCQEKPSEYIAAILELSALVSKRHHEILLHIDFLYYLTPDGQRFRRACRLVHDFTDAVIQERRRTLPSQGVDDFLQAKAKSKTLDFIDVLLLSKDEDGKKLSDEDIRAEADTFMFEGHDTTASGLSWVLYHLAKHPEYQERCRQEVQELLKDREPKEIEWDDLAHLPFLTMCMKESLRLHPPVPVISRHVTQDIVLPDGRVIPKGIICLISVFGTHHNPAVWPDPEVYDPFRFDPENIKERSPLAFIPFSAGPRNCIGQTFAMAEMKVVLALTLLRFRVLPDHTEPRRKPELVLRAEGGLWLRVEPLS

CYP2B6 = target: T8, CYP2B6 (Homo sapiens, UniProt P20813); assay: Incubation of [3H]filapixant with human recombinant CYP2B6 (Supersomes); type: in vitro ADME; conditions: 1 µM [3H]filapixant, CYP2B6, 60 min
T8 construct: purchased
T8 sequence (P20813 1-491): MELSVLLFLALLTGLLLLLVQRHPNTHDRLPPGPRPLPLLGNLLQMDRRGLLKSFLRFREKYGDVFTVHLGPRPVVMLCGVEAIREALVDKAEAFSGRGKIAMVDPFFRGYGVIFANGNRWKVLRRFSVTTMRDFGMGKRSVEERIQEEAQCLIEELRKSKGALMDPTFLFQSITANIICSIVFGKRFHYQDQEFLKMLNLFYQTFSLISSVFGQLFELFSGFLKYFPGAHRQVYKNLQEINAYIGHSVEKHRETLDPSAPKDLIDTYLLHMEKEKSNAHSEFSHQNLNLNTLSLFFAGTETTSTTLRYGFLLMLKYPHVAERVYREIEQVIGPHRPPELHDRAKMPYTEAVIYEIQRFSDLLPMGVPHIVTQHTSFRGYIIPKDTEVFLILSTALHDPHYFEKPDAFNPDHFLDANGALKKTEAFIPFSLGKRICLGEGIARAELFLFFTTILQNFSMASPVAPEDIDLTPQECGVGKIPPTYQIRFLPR

CYP2C19 = target: T9, CYP2C19 (Homo sapiens, UniProt P33261); assay: Incubation of [3H]filapixant with human recombinant CYP2C19 (Supersomes); type: in vitro ADME; conditions: 1 µM [3H]filapixant, CYP2C19, 60 min
T9 construct: purchased
T9 sequence (P33261 whole entry): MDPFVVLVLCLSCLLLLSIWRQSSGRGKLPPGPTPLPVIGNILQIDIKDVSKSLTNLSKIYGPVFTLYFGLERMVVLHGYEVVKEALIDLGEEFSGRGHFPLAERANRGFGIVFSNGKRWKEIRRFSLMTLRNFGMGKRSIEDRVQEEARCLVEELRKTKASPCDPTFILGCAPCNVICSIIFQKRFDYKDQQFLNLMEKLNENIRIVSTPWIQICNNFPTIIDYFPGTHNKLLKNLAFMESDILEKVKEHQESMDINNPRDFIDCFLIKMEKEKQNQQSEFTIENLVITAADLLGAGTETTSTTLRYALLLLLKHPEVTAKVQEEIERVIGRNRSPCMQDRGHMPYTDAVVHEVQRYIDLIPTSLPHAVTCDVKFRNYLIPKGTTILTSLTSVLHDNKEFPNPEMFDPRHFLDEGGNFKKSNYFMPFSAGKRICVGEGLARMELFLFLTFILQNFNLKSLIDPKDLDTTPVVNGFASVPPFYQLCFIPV

[9] = insect, 1 h, 1 µM
[10] = patients; cited from earlier work

inhibition at 1000 µM (pan-CYP): 94.5%
Reduction of apparent CLint of filapixant compared to untreated control [1]: 90 to 95%
SMILES: Nn1nnc2ccccc21 [ABT, 1-Aminobenzotriazol]

Mean maximum concentrations of itraconazole [2]: 1014.6 µg/L
inhibition at 2 µM (CYP3A4 [3]): 94.4%
Reduction of apparent CLint of filapixant compared to untreated control [1]: 90 to 95%
Effect of inhibitor on drug depletion of [3H]filapixant and formation of metabolites [4]: inhibited
SMILES: CCC(C)n1ncn(-c2ccc(N3CCN(c4ccc(OCC5COC(Cn6cncn6)(c6ccc(Cl)cc6Cl)O5)cc4)CC3)cc2)c1=O (centres unmarked) [Itraconazole, itraconazole]

Remaining drug and formation of metabolites, Peak Area (CYP3A4 [5]): 0.5 % of Radioactivity
Remaining drug and formation of metabolites, Peak Area (CYP1A1): 2.9 % of Radioactivity
Remaining drug and formation of metabolites, Peak Area (CYP2J2): 0.9 % of Radioactivity
Recovery of filapixant and metabolite formation, Liver Microsomes [6]: 0.9 % of radioactivity
Recovery of filapixant and metabolite formation, Hepatocytes [7]: 0.4–0.8 % of radioactivity
Remaining drug and formation of metabolites, Peak Area (CYP2D6): 5.4 % of Radioactivity
SMILES: C[C@@H](NC(=O)c1cc(OC[C@H]2CN(C)CCO2)cc(-c2ncc(CO)s2)c1)c1cnc(C(F)(F)F)nc1 [M-3]

Remaining drug and formation of metabolites, Peak Area (CYP3A4 [5]): 6.1 % of Radioactivity
Vmax of metabolite formation (CYP3A4 [5]): 9.20E+03 peak area/pmol CYP/min
Vmax of metabolite formation (Michaelis-Menten plot, Figure S7) (CYP3A4 [5]; recombinant CYP3A4 25 pmol/mL, 20 min, rate axis: area metabolite/min/mg): 9202.
Remaining drug and formation of metabolites, Peak Area (CYP1A1): 6.5 % of Radioactivity
Recovery of filapixant and metabolite formation, Liver Microsomes [6]: 7.6 % of radioactivity
Remaining drug and formation of metabolites, Peak Area (CYP3A5): 1.5 % of Radioactivity
Recovery of filapixant and metabolite formation, Hepatocytes [7]: 1.0–7.5 % of radioactivity
Vmax of metabolite formation [8]: 1.02E+04 peak area/pmol CYP/min
Vmax of metabolite formation (Michaelis-Menten plot, Figure S8) ([8]; human liver microsomes 0.5 mg/mL, 30 min, rate axis: area metabolite/min/mg): 1.021e+4
Km at 30 min [8]: 7.9 µM
SMILES: Cc1cnc(-c2cc(OC[C@H]3CN(C)C(=O)CO3)cc(C(=O)N[C@H](C)c3cnc(C(F)(F)F)nc3)c2)s1 [M-4]

Remaining drug and formation of metabolites, Peak Area (CYP3A4 [5]): 0.4 % of Radioactivity
Remaining drug and formation of metabolites, Peak Area (CYP2C9): 0.2 % of Radioactivity
Recovery of filapixant and metabolite formation, Hepatocytes [7]: 0–0.2 % of radioactivity
Remaining drug and formation of metabolites, Peak Area (CYP4F2): 0.5 % of Radioactivity
SMILES: C[C@@H](NC(=O)c1cc(OC[C@H]2CN(C)CCO2)cc(-c2ncc(C(=O)O)s2)c1)c1cnc(C(F)(F)F)nc1 [M-5]

Remaining drug and formation of metabolites, Peak Area (CYP3A4 [5]): 6.0 % of Radioactivity
Vmax of metabolite formation (CYP3A4 [5]): 7.78E+04 peak area/pmol CYP/min
Remaining drug and formation of metabolites, Peak Area (CYP1A1): 0.5 % of Radioactivity
Recovery of filapixant and metabolite formation, Liver Microsomes [6]: 4.4 % of radioactivity
Remaining drug and formation of metabolites, Peak Area (CYP3A5): 0.8 % of Radioactivity
Remaining drug and formation of metabolites, Peak Area (CYP2B6): 0.4 % of Radioactivity
Vmax of metabolite formation [8]: 1.32E+05 peak area/pmol CYP/min
Km at 30 min [8]: 68 µM
SMILES: Cc1cnc(-c2cc(O)cc(C(=O)N[C@H](C)c3cnc(C(F)(F)F)nc3)c2)s1 [M-6]

Remaining drug and formation of metabolites, Peak Area (CYP3A4 [5]): 3.4 % of Radioactivity
Vmax of metabolite formation (CYP3A4 [5]): 2.48E+04 peak area/pmol CYP/min
Remaining drug and formation of metabolites, Peak Area (CYP1A1): 0.7 % of Radioactivity
Remaining drug and formation of metabolites, Peak Area (CYP2C9): 0.2 % of Radioactivity
Remaining drug and formation of metabolites, Peak Area (CYP2J2): 0.7 % of Radioactivity
Recovery of filapixant and metabolite formation, Liver Microsomes [6]: 2.4 % of radioactivity
Recovery of filapixant and metabolite formation, Hepatocytes [7]: 0–1.7 % of radioactivity
Remaining drug and formation of metabolites, Peak Area (CYP2C19): 0.2 % of Radioactivity
Vmax of metabolite formation [8]: 4.34E+04 peak area/pmol CYP/min
Km at 30 min [8]: 28.5 µM
SMILES: CNC[C@@H](O)COc1cc(C(=O)N[C@H](C)c2cnc(C(F)(F)F)nc2)cc(-c2ncc(C)s2)c1 [M-8]

Remaining drug and formation of metabolites, Peak Area (CYP3A4 [5]): 1.9 % of Radioactivity
Recovery of filapixant and metabolite formation, Hepatocytes [7]: 0–0.3 % of radioactivity
Remaining drug and formation of metabolites, Peak Area [9]: 0.2 % of Radioactivity
SMILES: Cc1cnc(-c2cc(OC[C@H](O)CN)cc(C(=O)N[C@H](C)c3cnc(C(F)(F)F)nc3)c2)s1 [M-11]

inhibition at 2 µM (CYP3A4 [3]): 95.6%
Reduction of apparent CLint of filapixant compared to untreated control [1]: 90 to 95%
Effect of inhibitor on drug depletion of [3H]filapixant and formation of metabolites [4]: inhibited
SMILES: COCC(=O)O[C@]1(CCN(C)CCCc2nc3ccccc3[nH]2)CCc2cc(F)ccc2[C@@H]1C(C)C [Mibefradil, mibefradil]

Effect of inhibitor on drug depletion of [3H]filapixant and formation of metabolites [4]: inhibited
SMILES: CC[C@]1(C)C[C@@H](OC(=O)CSc2nnc(N)[nH]2)[C@]2(C)[C@H](C)CC[C@]3(CCC(=O)[C@H]32)[C@@H](C)[C@@H]1O [azamulin]

SMILES: Cc1cnc(-c2cc(O[C@@H]3CCOC3)cc(C(=O)N[C@H](C)c3cnc(C(F)(F)F)nc3)c2)s1 [eliapixant]
Frequency of taste disturbances / taste-related side effects [10]: considerably reduced compared to gefapixant

SMILES: COc1cc(C(C)C)c(Oc2cnc(N)nc2N)cc1S(N)(=O)=O [gefapixant]
Frequency of taste disturbances / taste-related side effects [10]: high frequency
